Measurements reported in US20090130691A1, “SCREENING PROTEINASE MODULATORS USING A CHIMERIC PROTEIN AND SKI-I PROPROTEIN CONVERTASE SUBSTRATES AND INHIBITORS” (Institut de Recherches Cliniques de Montreal, priority 2005, published 2009).
Where two headings read alike, the source gives them in different places. Residues, ends and D or L forms follow the SMILES beside them. *: point of attachment. Decanoyl = CCCCCCCCCC(=O)*; CH2Cl = ClC*

How the values were obtained:
SKI-1 [1] = molecular target: T1, SKI-1 (Cricetulus griseus, UniProt Q9Z2A8); assay: cell-based; parameters: species or system hamster
T1 construct: endogenous in cells; host or cells: CHOK1
T1 sequence (Q9Z2A8 187-1052): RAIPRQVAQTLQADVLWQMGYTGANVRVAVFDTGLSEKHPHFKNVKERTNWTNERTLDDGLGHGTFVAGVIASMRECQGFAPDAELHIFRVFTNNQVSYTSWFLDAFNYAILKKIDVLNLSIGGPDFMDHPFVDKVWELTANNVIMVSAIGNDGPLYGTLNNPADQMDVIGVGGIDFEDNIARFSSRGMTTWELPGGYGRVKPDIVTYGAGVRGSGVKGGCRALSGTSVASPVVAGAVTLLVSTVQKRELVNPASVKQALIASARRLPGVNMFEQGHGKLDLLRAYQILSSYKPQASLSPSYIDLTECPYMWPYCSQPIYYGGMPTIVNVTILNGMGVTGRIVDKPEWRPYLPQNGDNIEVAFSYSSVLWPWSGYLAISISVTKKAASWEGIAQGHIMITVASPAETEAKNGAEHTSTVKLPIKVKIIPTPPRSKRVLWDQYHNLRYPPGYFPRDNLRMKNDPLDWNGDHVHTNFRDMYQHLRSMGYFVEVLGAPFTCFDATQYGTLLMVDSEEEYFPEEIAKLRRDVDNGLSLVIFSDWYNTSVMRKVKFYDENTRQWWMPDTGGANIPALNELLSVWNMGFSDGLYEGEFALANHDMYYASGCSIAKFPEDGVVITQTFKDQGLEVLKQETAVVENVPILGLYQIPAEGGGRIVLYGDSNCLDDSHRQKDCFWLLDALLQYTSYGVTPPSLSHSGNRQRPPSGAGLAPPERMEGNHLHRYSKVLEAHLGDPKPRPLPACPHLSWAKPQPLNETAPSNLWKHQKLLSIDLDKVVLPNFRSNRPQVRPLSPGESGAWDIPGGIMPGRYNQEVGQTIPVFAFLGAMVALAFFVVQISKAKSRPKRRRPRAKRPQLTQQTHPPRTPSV

SKI-1 [2] = molecular target: T1, SKI-1; assay: cell-based
SKI-1 [3] = molecular target: T2, SKI-1 (Homo sapiens, UniProt Q14703); assay type: cell-based
T2 construct: For SKI-1, several cell lines expressing SKI-1 could be used; endogenous in cells; host or cells: HuH7
T2 sequence (Q14703 187-1052): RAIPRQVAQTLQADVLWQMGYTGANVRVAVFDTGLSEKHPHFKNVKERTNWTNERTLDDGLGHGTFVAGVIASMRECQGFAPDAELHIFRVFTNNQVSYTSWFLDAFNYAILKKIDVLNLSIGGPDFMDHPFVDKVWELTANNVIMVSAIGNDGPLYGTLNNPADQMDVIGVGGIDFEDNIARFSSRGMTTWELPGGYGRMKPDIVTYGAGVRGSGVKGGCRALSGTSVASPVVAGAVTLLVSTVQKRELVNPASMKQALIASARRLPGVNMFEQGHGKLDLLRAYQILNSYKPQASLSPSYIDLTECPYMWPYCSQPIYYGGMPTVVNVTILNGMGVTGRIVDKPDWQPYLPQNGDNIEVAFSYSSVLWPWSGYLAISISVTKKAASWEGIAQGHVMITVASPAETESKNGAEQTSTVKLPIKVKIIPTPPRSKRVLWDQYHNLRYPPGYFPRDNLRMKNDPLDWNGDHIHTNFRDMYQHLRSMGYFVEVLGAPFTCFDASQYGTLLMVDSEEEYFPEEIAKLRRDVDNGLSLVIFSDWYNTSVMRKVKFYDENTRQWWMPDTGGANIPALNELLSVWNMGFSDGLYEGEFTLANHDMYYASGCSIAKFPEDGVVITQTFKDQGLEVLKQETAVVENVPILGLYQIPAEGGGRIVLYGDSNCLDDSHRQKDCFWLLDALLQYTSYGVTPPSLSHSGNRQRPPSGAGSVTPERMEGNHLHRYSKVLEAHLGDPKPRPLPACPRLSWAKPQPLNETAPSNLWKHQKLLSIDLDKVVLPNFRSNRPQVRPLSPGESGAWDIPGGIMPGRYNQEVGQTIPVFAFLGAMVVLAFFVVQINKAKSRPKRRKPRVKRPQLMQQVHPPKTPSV

[4] = system: endogenous Furin-like PCs; assay: Ex vivo processing of proPDGF-A in HEK293 cells stably expressing PDGF-A-V5; assay type: cell-based, human
[5] = molecular target: T3, SKI-1 (endogenous enzyme of CHOK1 cells) (UniProt Q9Z2A8); assay: cell-based or functional assay
T3 sequence: T1 sequence (Q9Z2A8 187-1052)

[6] = molecular target: endogenous Furin-like PCs; assay: cell-based or functional assay
Furin-like PCs [7] = assay: FACS detection of HA tag on HeLa cells expressing Furin-like PC bait chimera; assay type: cell-based, human
Protocol: HeLa cells were submitted to two rounds of fluorescence activated cell sorting (FACS) using Alexa488™ as fluorophore with a MoFlo™ cell sorter (Cytomation, Fort Collins, Colo., USA) to obtain pools of cells expressing the Fc (Fc positive) but negative for the HA tag (HA negative) (FIG. 7A, darker dots). The presence of Fc tags was the sign that cleavage by Furin-like PCs at the bait sequence KRIRLRR←SPD (SEQ ID NO: 29) had released the HA tag.
This isolated pool of cells was incubated for 6 h with 60 μM of dec-RVKR-cmk (SEQ ID NO: 35), a potent PC-inhibitor, and submitted to FACS analysis.
The FACS sorted cells pool was then used to isolate individual clones: 10 clones were isolated of which one (clone PCfur-1.6) expresses a large amount of Fc (i.e. […] chimera) at the cell surface.

Furin-like PCs [8] = assay: CELISA detection of HA tag on HeLa cells expressing Furin-like PC bait chimera; assay type: cell-based, human; conditions: for effect of serpin expression on presence of the HA tag at the cell surface: PCfur-1.6 cells transfected or adenovirus infected
Protocol: A CELISA test was then used to confirm the results obtained by the FACS analysis (FIG. 7A). Pools of cells transfected with the chimera were rinsed twice with PBS. Then, at room temperature, the following steps were performed. Cells were fixed in PBS and 4% formalin 10 min. They were then rinsed twice with PBS. The anti-HA/peroxidase antibody diluted 1/8000 in PBS and 1% powdered milk (filtered) was then added. The cells were incubated 30 minutes on Labquake™. Again, the cells were rinsed twice with PBS. The substrate (2,2′ azino-Bis (3-ethylobenzathiazoline-6-sulfonic acid); Sigma) was added to the cells and the mixture was incubated 15 minutes. The OD was read at 405 nm and 470 nm for turbidity, and the subtraction of the reading at both wavelengths (405-470) gave normalized product absorbance. The CELISA assay was performed in the presence of different concentrations of dec-RVKR-cmk (SEQ ID NO:35). The signal/noise ratio obtained in the presence of 60 μM of dec-RVKR-CMK (SEQ ID NO: 35) was above 15. The CELISA (FIG. 7B) confirmed that the presence of the inhibitor increases the detection of HA at the surface of the cells.
Some PCfur-1.6 cells were transfected with an expression vector containing a cDNA coding for either α1-PDX or the α1-AT using lipofectamine as described by the manufacturer (Invitrogen) (less than 20% efficacy), or infected using recombinant adenovirus (Ad) as described (Benjannet et al., 2004) (near 100% efficacy).

NARC-1/PCSK9 = assay: Western blot of cells expressing NARC-1/PCSK9 bait (SN11) chimera; assay type: cell-based, human; conditions: 50 μM, 6 h
Source text: A specific CELISA to the NARC-1/PCSK9 was designed using the approach described in Example 1 above. Chimeras were constructed using sequences known to be cleavable by NARC-1/PCSK9 (SSVFAQ-SIPWN (SEQ ID NO: 31)), or EEDSSVFAQ-SIPWN (SEQ ID NO: 55) combined to full length ACE2-CT segment, and then used to transfect HuH7. Chimeras are also similarly constructed using KHQKLL-SIDLD (SEQ ID NO: 32)). HuH7 was selected amongst 20 cell lines as being one in which the NARC-1/PCSK9 expression level the highest.
Cells expressing chimera containing the NARC/PCSK9 bait SSVFAQ-SIPWN (SEQ ID NO: 31) (SN11) were analyzed by Western blot. Cells were treated or not for 6 h with 50 μM of dec-RVKR-cmk (SEQ ID NO: 35) to inhibit endogenous Furin-like enzymes and thus indirectly activate NARC/PCSK9. Cells express an approximately equal amounts of ER- (endo H sensitive, not shown) and Golgi-associated (endo H resistant, not shown) SN11 chimera as observed using an HA mAb. […] The Western blot protocol used was a standard one using a monoclonal commercial anti-HA antibody coupled to horseradish peroxidase (Sigma; used as proposed by the manufacturer) at a final dilution of 1:5000.

Furin-like PCs [9] = assay: Western blot of cell-surface biotinylated proteins of PCfur-1.6 cells immunoprecipitated with HA antibody; assay type: cell-based, human; conditions: PCfur-1.6 cells infected with recombinant adenovirus, 1× and 2×
Source text: Similar confirmation was obtained using Western blots of cell-surface biotinylated proteins, immunoprecipitated with the HA-antibody and detected on Western using horseraddish peroxidase coupled streptavidin (WB streptavidin-HRP). The Western blot protocol used was a standard one using a monoclonal commercial anti-HA antibody coupled to horseraddish peroxidase (Sigma; used as proposed by the manufacturer) at a final dilution of 1:5000. […] This confirms that the HA reappears specifically in the presence of a PCs inhibitor. […] Small molecules were also identified with the assay (see Example 7).

CCCCCCCCCC(=O)N[C@H](C(=O)N[C@@H](CO)C(=O)N[C@@H](CCCNC(=N)N)C(=O)N[C@@H](CCCNC(=N)N)C(=O)N[C@@H](CC(C)C)C(=O)N[C@@H](CC(C)C)C(=O)CCl)[C@@H](C)CC [dec-ISRRLL-cmk] (Decanoyl-ISRRLL-CH2Cl)
IC50 (SKI-1 [1]): ~20 µM

CCCCCCCCCC(=O)N[C@@H](CCCNC(=N)N)C(=O)N[C@@H](CCCNC(=N)N)C(=O)N[C@@H](CC(C)C)C(=O)N[C@@H](CC(C)C)C(=O)CCl [dec-RRLL-cmk, reference compound] (Decanoyl-RRLL-CH2Cl)
IC50 (SKI-1 [2]): ≤ 1000 nM

CCCCCCCCCC(=O)N[C@@H](Cc1ccc(O)cc1)C(=O)N[C@H](C(=O)N[C@@H](CO)C(=O)N[C@@H](CCCNC(=N)N)C(=O)N[C@@H](CCCNC(=N)N)C(=O)N[C@@H](CC(C)C)C(=O)N[C@@H](CC(C)C)C(=O)CCl)[C@@H](C)CC [dec-YISRRLL-cmk] (Decanoyl-YISRRLL-CH2Cl)
re-appearance of the HA tag at the cell surface (FACS) (SKI-1 [3]): A reversion of the level of the chimeric protein to that of the uncleaved form
IC50 (SKI-1 [1]): ~7 µM
IC50 (SKI-1 [2]): ≤ 1000 nM
inhibition of ex vivo processing of proPDGF-A (in words) [4]: not an effective inhibitor

dec-ISRRLL-cmk (peptide)
50% inhibition of the processing of endogenous proSREBP-2 in CHOK1 cells (Western blot) [5]: 20 µM

dec-RRLL-cmk (peptide)
inhibition of proPDGF-A processing in HEK293 cells (Western blot of media) [6]: > 100 µM

dec-RVKR-cmk (Decanoyl-RVKR-CH2Cl)
conversion of cleaved chimera into uncleaved form exhibiting the HA-tag at the cell surface (FACS) (Furin-like PCs [7]; clone PCfur-1.6, as little as 30 μM): completely converted into an uncleaved form
re-appearance of the HA tag at the cell surface (FACS) (Furin-like PCs [7]; stable HeLa cell pool, 60 μM, 6 h): very significant reversion of the level of the chimeric protein to that of the uncleaved form
signal/noise ratio in CELISA (Furin-like PCs [8]; HeLa cell pool, 60 μM inhibitor): above 15
level of Golgi-associated HA tag versus ER-associated (indirect activation of NARC-1/PCSK9) (NARC-1/PCSK9): a substantial decrease in the level of the Golgi-associated HA tag versus the ER-one
concentration that completely inhibits proPDGF-A processing ([4]; HEK293 cells, overnight, Western blot): ~3 µM

α1-AT: serpin α1-antitrypsin, which does not inhibit PCs; control
effect of serpin expression on presence of the HA tag at the cell surface (Furin-like PCs [8]): had no effect
HA-tagged chimera at the cell surface by Western blot (Furin-like PCs [9]): no chimeric HA-tagged chimera could be detected

α1-PDX: serpin variant, a known PCs inhibitor, expressed from cDNA or adenovirus
increase in absorbance in CELISA, Ad:PDX compared to Ad:AT (Furin-like PCs [8]; PCfur-1.6 cells infected with recombinant adenovirus): ~7 fold
effect of serpin expression on presence of the HA tag at the cell surface (Furin-like PCs [8]): increased the presence of the HA tag at the cell surface
HA-tagged chimera at the cell surface by Western blot (Furin-like PCs [9]): the presence of the HA tag at the cell surface of these cells could be observed
